Target: HPK1
Experiment: HPK1 Lantha Binding Assay ("Lanth")
Details: Table B1-1, read-out: HPK1 Ki (μM) (Lanth)
How it was run: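 TR-FRET tracer displacement with 2 nM GST-tagged kinase, 2 nM Eu-anti-GST antibody and 15 nM Tracer222 at 23 C. Enzyme–antibody preincubated 1 h with compound, then tracer added for 1 h; 340 nm excitation, 615/665 nm emission. Ki from Morrison fit over an 11-point 5-fold dilution.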

Row | Compound | Ki [nM]
1 | COC(C)(C)[C@@H]1C[C@H]1C(=O)Nc1cc2cc(-c3cnccc3C)nc(N)c2cn1 [Compound 239, (1R,2R)—N-[8-amino-6-(4-methylpyridin-3-yl)-2,7-naphthyridin-3-yl]-2-(2-methoxypropan-2-yl)cyclopropane-1-carboxamide] | 5.28
2 | COC(C)(C)[C@H]1C[C@@H]1C(=O)Nc1cc2cc(-c3cnccc3C)nc(N)c2cn1 [Compound 240, (1S,2S)—N-[8-amino-6-(4-methylpyridin-3-yl)-2,7-naphthyridin-3-yl]-2-(2-methoxypropan-2-yl)cyclopropane-1-carboxamide] | 47
3 | Cc1ccncc1-c1cc2cc(NC(=O)[C@@H]3C[C@H]3C(C)(C)O)ncc2c(N)n1 [Compound 241, (1R,2R)—N-[8-amino-6-(4-methylpyridin-3-yl)-2,7-naphthyridin-3-yl]-2-(2-hydroxypropan-2-yl)cyclopropane-1-carboxamide] | 2.19
4 | Cc1ccncc1-c1cc2cc(NC(=O)[C@H]3C[C@@H]3C(C)(C)O)ncc2c(N)n1 [Compound 242, (1S,2S)—N-[8-amino-6-(4-methylpyridin-3-yl)-2,7-naphthyridin-3-yl]-2-(2-hydroxypropan-2-yl)cyclopropane-1-carboxamide] | 31.2
5 | N#C[C@@H]1C[C@H]1C(=O)Nc1cc2cc(-c3cnccc3-c3cc[nH]n3)nc(N)c2cn1 [Compound 243, (1R,2R)—N-(6-(4-(1H-pyrazol-3-yl)pyridin-3-yl)-8-amino-2,7-naphthyridin-3-yl)-2-cyanocyclopropanecarboxamide] | 1.37
6 | N#C[C@H]1C[C@@H]1C(=O)Nc1cc2cc(-c3cnccc3-c3cc[nH]n3)nc(N)c2cn1 [Compound 244, (1S,2S)—N-(6-(4-(1H-pyrazol-3-yl)pyridin-3-yl)-8-amino-2,7-naphthyridin-3-yl)-2-cyanocyclopropanecarboxamide] | 3.56
7 | Nc1nc(-c2cnccc2CCO)cc2cc(NC(=O)[C@H]3C[C@@H]3c3cnsc3)ncc12 [Compound 245, (1S,2S)—N-(8-amino-6-(4-(2-hydroxyethyl)pyridin-3-yl)-2,7-naphthyridin-3-yl)-2-(isothiazol-4-yl)cyclopropanecarboxamide] | 5.42
8 | Cc1c(N)cncc1-c1cc2cc(NC(=O)[C@@H]3C[C@H]3CC#N)ncc2c(N)n1 [Compound 248, (1R,2S)—N-[8-amino-6-(5-amino-4-methylpyridin-3-yl)-2,7-naphthyridin-3-yl]-2-(cyanomethyl)cyclopropane-1-carboxamide] | 1.03

These reach a lower Ki. Values come first.

Row | Ki [nM] | Compound
9 | 0.0455 | Nc1nc(-c2cnccc2CCO)cc2cc(NC(=O)[C@@H]3C[C@H]3c3cnsc3)ncc12 [Compound 246, (1R,2R)—N-(8-amino-6-(4-(2-hydroxyethyl)pyridin-3-yl)-2,7-naphthyridin-3-yl)-2-(isothiazol-4-yl)cyclopropanecarboxamide]
10 | 0.0219 | Cc1c(N)cncc1-c1cc2cc(NC(=O)[C@H]3C[C@@H]3CC#N)ncc2c(N)n1 [Compound 247, (1S,2R)—N-[8-amino-6-(5-amino-4-methylpyridin-3-yl)-2,7-naphthyridin-3-yl]-2-(cyanomethyl)cyclopropane-1-carboxamide]
11 | 0.433 | Cc1ccncc1-c1cc2cc(Nc3cnn([C@@H]4CCN(C)C4=O)c3)ncc2c(N)n1 [Compound 249, (3R)-3-(4-[[8-amino-6-(4-methylpyridin-3-yl)-2,7-naphthyridin-3-yl]amino]-1H-pyrazol-1-yl)-1-methylpyrrolidin-2-one]
12 | 0.184 | Cc1ccncc1-c1cc2cc(Nc3cnn([C@H]4CCN(C)C4=O)c3)ncc2c(N)n1 [Compound 250, (3S)-3-(4-[[8-amino-6-(4-methylpyridin-3-yl)-2,7-naphthyridin-3-yl]amino]-1H-pyrazol-1-yl)-1-methylpyrrolidin-2-one]
13 | 0.512 | Cc1ccncc1-c1cc2cc(Nc3cnn([C@@H]4CCCN(C)C4=O)c3)ncc2c(N)n1 [Compound 251, (3R)-3-(4-[[8-amino-6-(4-methylpyridin-3-yl)-2,7-naphthyridin-3-yl]amino]-1H-pyrazol-1-yl)-1-methylpiperidin-2-one]
